Results reported in patent publication US20210284952A1, “METHODS OF APPLYING ACETATE TOXICITY AND INDUCING ACETATE UPTAKE IN MICROALGAE CULTURES” (HELIAE DEVELOPMENT LLC, priority 2016, published 2021).
Where two headings read alike, the source gives them in different places.

Assays:
Chlorella sp. HS26 [1] = details: 2.4 g/L
Description: This experiment was conducted to determine the effect of different culture medium pH levels on the growth of Chlorella sp. HS26 at a constant culture medium acetate concentration. Duplicate 100 ml flasks of axenic cultures of Chlorella were adjusted to initial pH levels of 2.5, 3.5, 4.5, 5.5, 6.5, 7.0, 7.5, 8.5, 9.5, and 10.5. The culture pH was adjusted using either hydrochloric acid (HCl) or sodium hydroxide (NaOH). […] Samples of the flask culture were taken initially and every other day over a six day period (144 hours).

Chlorella sp. HS26 [2] = test system: Chlorella sp. HS26
Description: Cultures of Chlorella sp. […] 100 mL volume cultures were prepared in 250 mL flasks, and cultured at a pH of 7.5, temperature of 25° C., a shaking frequency of 100 rpm, and a light intensity of 100 μM photon/m^2 s for 7 days (168 hours).

Structure (SMILES): CC(=O)[O-].[Na+] [Sodium Acetate, sodium acetate]
- Cell Dry Weight of Chlorella (Chlorella sp. HS26 [1]; initial pH 6.5, 0 h): 0.6 g/L
- Cell Dry Weight of Chlorella (Chlorella sp. HS26 [1]; initial pH 6.5, 24 h): 0.8 g/L
- Cell Dry Weight of Chlorella (Chlorella sp. HS26 [1]; initial pH 6.5, 48 h): 1.8 g/L
- Cell Dry Weight of Chlorella (Chlorella sp. HS26 [1]; initial pH 6.5, 96 h): 4.3 g/L
- Cell Dry Weight of Chlorella (Chlorella sp. HS26 [1]; initial pH 6.5, 144 h): 6.0 g/L
- Cell Dry Weight of Chlorella (Chlorella sp. HS26 [1]; initial pH 7.5, 0 h): 0.6 g/L
- Cell Dry Weight of Chlorella (Chlorella sp. HS26 [1]; initial pH 7.5, 24 h): 0.6 g/L
- Cell Dry Weight of Chlorella (Chlorella sp. HS26 [1]; initial pH 7.5, 48 h): 1.7 g/L
- Cell Dry Weight of Chlorella (Chlorella sp. HS26 [1]; initial pH 7.5, 96 h): 4.4 g/L
- Cell Dry Weight of Chlorella (Chlorella sp. HS26 [1]; initial pH 7.5, 144 h): 6.0 g/L
- Cell Dry Weight of Chlorella (Chlorella sp. HS26 [1]; initial pH 8.5, 0 h): 0.6 g/L
- Cell Dry Weight of Chlorella (Chlorella sp. HS26 [1]; initial pH 8.5, 24 h): 0.8 g/L
- Cell Dry Weight of Chlorella (Chlorella sp. HS26 [1]; initial pH 8.5, 48 h): 2.4 g/L
- Cell Dry Weight of Chlorella (Chlorella sp. HS26 [1]; initial pH 8.5, 96 h): 4.2 g/L
- Cell Dry Weight of Chlorella (Chlorella sp. HS26 [1]; initial pH 8.5, 144 h): 6.0 g/L
- Cell Dry Weight of Chlorella (Chlorella sp. HS26 [1]; initial pH 9.5, 0 h): 0.6 g/L
- Cell Dry Weight of Chlorella (Chlorella sp. HS26 [1]; initial pH 9.5, 24 h): 0.8 g/L
- Cell Dry Weight of Chlorella (Chlorella sp. HS26 [1]; initial pH 9.5, 48 h): 1.2 g/L
- Cell Dry Weight of Chlorella (Chlorella sp. HS26 [1]; initial pH 9.5, 96 h): 4.3 g/L
- Cell Dry Weight of Chlorella (Chlorella sp. HS26 [1]; initial pH 9.5, 144 h): 6.1 g/L
- Cell Dry Weight of Chlorella (Chlorella sp. HS26 [1]; initial pH 10.5, 0 h): 0.6 g/L
- Cell Dry Weight of Chlorella (Chlorella sp. HS26 [1]; initial pH 10.5, 24 h): 0.9 g/L
- Cell Dry Weight of Chlorella (Chlorella sp. HS26 [1]; initial pH 10.5, 48 h): 1.4 g/L
- Cell Dry Weight of Chlorella (Chlorella sp. HS26 [1]; initial pH 10.5, 96 h): 4.3 g/L
- Cell Dry Weight of Chlorella (Chlorella sp. HS26 [1]; initial pH 10.5, 144 h): 6.1 g/L
- growth (Chlorella sp. HS26 [2]; 2.5 g/L sodium acetate): 0.620 g/L day
- time to reach exponential phase (Chlorella sp. HS26 [2]; 2.5 g/L sodium acetate): 48 h
- growth (Chlorella sp. HS26 [2]; 5 g/L sodium acetate): 0.065 g/L day
- Chlorella dry weights (Chlorella sp. HS26 [2]; sodium acetate 2.5 g/L, 0 h): 0.12 g/L
- Chlorella dry weights (Chlorella sp. HS26 [2]; sodium acetate 2.5 g/L, 24 h): 0.23 g/L
- Chlorella dry weights (Chlorella sp. HS26 [2]; sodium acetate 2.5 g/L, 48 h): 0.85 g/L
- Chlorella dry weights (Chlorella sp. HS26 [2]; sodium acetate 2.5 g/L, 72 h): 1.10 g/L
- Chlorella dry weights (Chlorella sp. HS26 [2]; sodium acetate 2.5 g/L, 144 h): 2.72 g/L
- Chlorella dry weights (Chlorella sp. HS26 [2]; sodium acetate 2.5 g/L, 168 h): 3.23 g/L
- Chlorella dry weights (Chlorella sp. HS26 [2]; sodium acetate 5 g/L, 0 h): 0.12 g/L
- Chlorella dry weights (Chlorella sp. HS26 [2]; sodium acetate 5 g/L, 24 h): 0.19 g/L
- Chlorella dry weights (Chlorella sp. HS26 [2]; sodium acetate 5 g/L, 48 h): 0.25 g/L
- Chlorella dry weights (Chlorella sp. HS26 [2]; sodium acetate 5 g/L, 72 h): 0.55 g/L
- Chlorella dry weights (Chlorella sp. HS26 [2]; sodium acetate 5 g/L, 144 h): 1.89 g/L
- Chlorella dry weights (Chlorella sp. HS26 [2]; sodium acetate 5 g/L, 168 h): 2.41 g/L
- Chlorella dry weights (Chlorella sp. HS26 [2]; sodium acetate 10 g/L, 0 h): 0.12 g/L
- Chlorella dry weights (Chlorella sp. HS26 [2]; sodium acetate 10 g/L, 24 h): 0.13 g/L
- Chlorella dry weights (Chlorella sp. HS26 [2]; sodium acetate 10 g/L, 48 h): 0.16 g/L
- Chlorella dry weights (Chlorella sp. HS26 [2]; sodium acetate 10 g/L, 72 h): 0.11 g/L
- Chlorella dry weights (Chlorella sp. HS26 [2]; sodium acetate 10 g/L, 144 h): 0.09 g/L
- Chlorella dry weights (Chlorella sp. HS26 [2]; sodium acetate 10 g/L, 168 h): 0.00 g/L
- Chlorella dry weights (Chlorella sp. HS26 [2]; sodium acetate 20 g/L, 0 h): 0.12 g/L
- Chlorella dry weights (Chlorella sp. HS26 [2]; sodium acetate 20 g/L, 24 h): 0.16 g/L
- Chlorella dry weights (Chlorella sp. HS26 [2]; sodium acetate 20 g/L, 48 h): 0.13 g/L
- Chlorella dry weights (Chlorella sp. HS26 [2]; sodium acetate 20 g/L, 72 h): 0.12 g/L
- Chlorella dry weights (Chlorella sp. HS26 [2]; sodium acetate 20 g/L, 144 h): 0.07 g/L
- Chlorella dry weights (Chlorella sp. HS26 [2]; sodium acetate 20 g/L, 168 h): 0.00 g/L
- Chlorella dry weights (Chlorella sp. HS26 [2]; sodium acetate 30 g/L, 0 h): 0.12 g/L
- Chlorella dry weights (Chlorella sp. HS26 [2]; sodium acetate 30 g/L, 24 h): 0.14 g/L
- Chlorella dry weights (Chlorella sp. HS26 [2]; sodium acetate 30 g/L, 48 h): 0.11 g/L
- Chlorella dry weights (Chlorella sp. HS26 [2]; sodium acetate 30 g/L, 72 h): 0.09 g/L
- Chlorella dry weights (Chlorella sp. HS26 [2]; sodium acetate 30 g/L, 144 h): 0.08 g/L
- Chlorella dry weights (Chlorella sp. HS26 [2]; sodium acetate 30 g/L, 168 h): 0.00 g/L
- Chlorella dry weights (Chlorella sp. HS26 [2]; sodium acetate 40 g/L, 0 h): 0.12 g/L
- Chlorella dry weights (Chlorella sp. HS26 [2]; sodium acetate 40 g/L, 24 h): 0.11 g/L
- Chlorella dry weights (Chlorella sp. HS26 [2]; sodium acetate 40 g/L, 48 h): 0.09 g/L
- Chlorella dry weights (Chlorella sp. HS26 [2]; sodium acetate 40 g/L, 72 h): 0.10 g/L
- Chlorella dry weights (Chlorella sp. HS26 [2]; sodium acetate 40 g/L, 144 h): 0.09 g/L
- Chlorella dry weights (Chlorella sp. HS26 [2]; sodium acetate 40 g/L, 168 h): 0.00 g/L
- acetate concentration tolerance (Chlorella sp. HS26 [2]; sodium acetate in the culture, pH 7.5): approximately 7.5 g/L
